The text below walks through data of ChEMBL document CHEMBL1201862, “PubChem BioAssay data set” (2004).

For assay [1], the target named is T1, Low molecular weight phosphotyrosine protein phosphatase (Homo sapiens, UniProt P24666).
T1 sequence (P24666 whole entry): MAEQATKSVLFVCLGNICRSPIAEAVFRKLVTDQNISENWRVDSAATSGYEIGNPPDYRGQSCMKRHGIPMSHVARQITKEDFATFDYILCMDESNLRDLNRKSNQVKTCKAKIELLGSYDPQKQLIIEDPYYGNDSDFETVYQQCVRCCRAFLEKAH
The class given is functional. The settings on record: read-out: IC50_Mean.

The target in assay [2] is T1, Low molecular weight phosphotyrosine protein phosphatase. The class given is functional. The settings on record: read-out: IC50_Mean. The source holds these as a separate data set.
Assay [3] addresses T2, Tyrosine-protein phosphatase non-receptor type 22 (Homo sapiens, UniProt Q9Y2R2).
T2 sequence (Q9Y2R2 whole entry): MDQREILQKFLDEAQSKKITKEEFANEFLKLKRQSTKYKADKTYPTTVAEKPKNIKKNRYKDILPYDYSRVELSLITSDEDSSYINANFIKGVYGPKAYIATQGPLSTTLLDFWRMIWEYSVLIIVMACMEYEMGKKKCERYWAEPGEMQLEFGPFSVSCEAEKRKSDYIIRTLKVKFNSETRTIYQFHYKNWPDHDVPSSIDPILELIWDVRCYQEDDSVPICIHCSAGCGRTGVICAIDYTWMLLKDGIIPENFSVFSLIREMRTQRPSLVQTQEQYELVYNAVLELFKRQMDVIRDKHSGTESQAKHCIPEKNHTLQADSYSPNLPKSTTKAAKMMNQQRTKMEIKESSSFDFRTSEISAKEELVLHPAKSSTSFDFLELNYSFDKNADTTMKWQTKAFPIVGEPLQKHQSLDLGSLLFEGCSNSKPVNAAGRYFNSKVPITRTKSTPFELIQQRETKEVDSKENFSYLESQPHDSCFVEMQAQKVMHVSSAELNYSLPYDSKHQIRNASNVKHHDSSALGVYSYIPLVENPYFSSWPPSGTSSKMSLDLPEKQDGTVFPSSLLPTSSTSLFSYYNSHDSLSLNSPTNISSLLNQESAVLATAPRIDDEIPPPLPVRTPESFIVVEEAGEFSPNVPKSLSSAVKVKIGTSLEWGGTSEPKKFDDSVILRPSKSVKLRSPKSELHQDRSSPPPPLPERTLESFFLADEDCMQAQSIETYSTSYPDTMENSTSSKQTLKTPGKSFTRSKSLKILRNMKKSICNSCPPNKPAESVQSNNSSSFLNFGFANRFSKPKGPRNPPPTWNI
Put plainly: PTPN22 enzyme inhibitors – biochemical, fluorescence, LYP catalytic domain, selectivity assay for LMPTP inhibitor project, dose response (AID 652006). The following applies: read-out: IC50_Mean. The class given is functional.

The next assay addresses Albumin (Bos taurus, UniProt P02769). Put plainly: Counterscreen for inhibitors of T-cell receptor (TCR)-CD3 interaction: Fluorescence-based biochemical high throughput dose response assay to identify inhibitors of T-cell receptor (TCR)-CD3 interaction using a TAMRA-labeled BSA probe. The class given is functional. In general terms: The purpose of a counterscreen is to sort out artefacts and off-target activity.

The nature of assay [4]: cells. The class given is functional, cell-based.
Assay [5] addresses T3, Trace amine-associated receptor 1 (Homo sapiens, UniProt Q96RJ0). Put plainly: Fluorescence-based cell-based high throughput dose response assay to identify agonists of the human trace amine associated receptor 1 (TAAR1). The class given is functional.
Assay [6] deals with T3, Trace amine-associated receptor 1. The assay is described as follows: Counterscreen for agonists of the human trace amine associated receptor 1 (hTAAR1): Fluorescence-based cell-based high throughput dose response assay to identify hTAAR1 agonist that also desensitize TAAR1 receptor response. The class given is functional.
Assay [7] can be described thus: cells. The class given is functional, cell-based. This is another data set of the same source.
Another assay has as its system Vero. Put plainly: viability loss in Vero cells – cell-based, plate reader, cherry-pick samples, cytotoxicity control, dose response (AID 687020). The class given is functional. The settings on record: Chlorocebus sabaeus.
Assay [8] addresses Protein disulfide-isomerase (Homo sapiens, UniProt P07237). The assay is described as follows: inhibition of PDI-mediated insulin reduction – biochemical, turbidity, dry powder samples, set 2, confirmation (AID 652146).
The nature of assay [9]: general mammalian cell viability loss – inhibitor set, cherry-pick, set 2, cytotoxicity control for miR-122 modulator project, dose response (AID 720697). The class given is functional, cell-based.
Assay [10] is described as follows: inhibition of bursicon-driven LGR2 cAMP signaling – cell-based, HEK293, CRE-luciferase reporter, cherry pick, dose response (AID 743342). The class given is functional.
The nature of assay [11]: MITF Orthogonal Assay: SK-MEL-5 CTG Assay Measured in Cell-Based System Using Plate Reader - 2084-02_Inhibitor_Dose_DryPowder_Activity_Set7. The class given is functional.
Assay [12] is described as follows: MITF: Counter assay: A375 proliferation Measured in Cell-Based System Using Plate Reader - 2084-03_Inhibitor_Dose_DryPowder_Activity_Set8. The class given is functional. The following applies: A-375.
Assay [13] can be described thus: rescue of ΔF508 CFTR function, airway epithelium – human bronchial epithelial cells, plate reader, cherry-pick, two tests, dose response (AID 743267). The class given is functional, cell-based.

Each structure is given as a SMILES string. Active and inactive are the calls of the source. Some results are limits rather than exact numbers.

T3 sequence (Q96RJ0 whole entry): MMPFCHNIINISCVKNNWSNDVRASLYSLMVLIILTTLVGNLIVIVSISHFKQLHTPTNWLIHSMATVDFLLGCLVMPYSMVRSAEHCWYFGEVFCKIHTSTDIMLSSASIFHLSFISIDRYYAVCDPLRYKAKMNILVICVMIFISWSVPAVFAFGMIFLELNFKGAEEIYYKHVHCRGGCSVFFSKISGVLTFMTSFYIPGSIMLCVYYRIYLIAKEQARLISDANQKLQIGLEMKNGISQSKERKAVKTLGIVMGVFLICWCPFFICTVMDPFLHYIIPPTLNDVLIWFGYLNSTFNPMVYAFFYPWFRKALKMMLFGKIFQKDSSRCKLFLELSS
Chain of Protein disulfide-isomerase (P07237 whole entry): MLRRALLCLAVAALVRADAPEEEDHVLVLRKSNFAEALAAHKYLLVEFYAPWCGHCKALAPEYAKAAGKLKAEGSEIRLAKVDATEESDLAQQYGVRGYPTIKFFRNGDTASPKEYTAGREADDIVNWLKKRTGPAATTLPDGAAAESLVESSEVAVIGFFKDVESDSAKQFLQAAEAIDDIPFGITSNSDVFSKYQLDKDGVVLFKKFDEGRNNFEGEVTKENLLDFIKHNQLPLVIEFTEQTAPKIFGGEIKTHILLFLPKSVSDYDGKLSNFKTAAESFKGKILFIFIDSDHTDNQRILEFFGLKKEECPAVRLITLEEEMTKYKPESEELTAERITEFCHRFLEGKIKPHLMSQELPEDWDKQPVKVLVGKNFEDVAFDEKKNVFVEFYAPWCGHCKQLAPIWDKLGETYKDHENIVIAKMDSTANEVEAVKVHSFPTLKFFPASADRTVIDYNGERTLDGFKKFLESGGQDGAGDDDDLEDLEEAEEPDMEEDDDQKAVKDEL
Chain of Albumin (P02769 whole entry): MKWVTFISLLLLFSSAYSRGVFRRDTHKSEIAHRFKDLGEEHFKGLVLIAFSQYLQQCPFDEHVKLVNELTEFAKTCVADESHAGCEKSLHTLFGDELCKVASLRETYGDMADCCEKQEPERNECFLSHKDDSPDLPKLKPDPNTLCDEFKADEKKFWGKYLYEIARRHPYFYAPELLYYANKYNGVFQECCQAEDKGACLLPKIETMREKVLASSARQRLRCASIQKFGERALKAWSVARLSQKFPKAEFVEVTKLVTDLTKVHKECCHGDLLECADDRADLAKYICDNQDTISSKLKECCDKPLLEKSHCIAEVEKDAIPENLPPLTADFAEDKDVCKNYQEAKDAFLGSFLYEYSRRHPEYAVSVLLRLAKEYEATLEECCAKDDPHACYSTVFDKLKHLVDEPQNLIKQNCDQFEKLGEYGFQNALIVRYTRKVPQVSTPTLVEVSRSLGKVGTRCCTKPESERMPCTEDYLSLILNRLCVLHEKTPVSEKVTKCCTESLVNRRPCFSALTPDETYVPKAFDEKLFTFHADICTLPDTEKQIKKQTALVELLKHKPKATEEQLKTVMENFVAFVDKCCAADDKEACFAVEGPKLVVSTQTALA

On to `O=C1C(=Cc2cn(-c3ccccc3)nc2-c2ccc(OCc3ccccc3)cc2)SC(=S)N1CCS(=O)(=O)O`, for which the IC50 is 7.75 µM (active) in assay [1], 7.03 µM (active) in assay [2], 16.1 µM (active) in assay [3] and > 94.2 µM (inactive) at Albumin.
As to `CC(C)[C@H](NC(=O)c1ccccc1)C(=O)N1CCC[C@H]1C(=O)NCCc1ccccc1Cl`, the figures for the IC50 (in the assay “cells [4]”; in assay [6]) were > 29.9 µM (inactive) and 1.2 µM (active), respectively. In addition, the EC50 (in general, the concentration giving half of the maximal effect) in assay [5] was 0.754 µM (active); in the assay “cells [7]”, > 29.9 µM (inactive).
For `O=C(NCCN1CCCC1)[C@H]1N[C@H]2c3ccc(-c4ccccc4)c(=O)n3C[C@H]2[C@@H]1CO`, the AC50 (usually the concentration giving half of the maximal activity seen) in the assay on Vero was 23.1 µM (active).
Take `C=CCOc1ccc(CN2CCC(CCOc3ccccc3)(C(=O)N(C)CC)CC2)cc1Cl`: the AC50 in [8] is > 30 µM (inactive).
With `C[C@H](CO)N1C[C@H](C)[C@H](CN(C)S(=O)(=O)c2ccc(F)cc2)Oc2ccc(NS(C)(=O)=O)cc2C1=O`, the AC50 in [9] was 1.19 µM (active).
Regarding `C[C@H](CO)N1C[C@H](C)[C@H](CN(C)C(=O)Nc2ccccc2)OCCCC[C@H](C)Oc2ccc(NC(=O)NC3CCCCC3)cc2C1=O`, the AC50 in assay [10] is 12 µM (active).
With `CC1=C(N)C(=O)c2ccccc2C1=O`, the AC50 was 3.74 µM (active) in assay [11] and > 70 µM (inactive) in [12].
Turning to `COc1c(O[C@@H]2O[C@H](CO)[C@@H](O)[C@H](O)[C@H]2O)cc2c(c1OC)-c1ccc(SC)c(=O)cc1[C@@H](NC(C)=O)CC2` [THIOCOLCHICOSIDE], the half-maximal activity concentration (AC50) in [13] is 50 µM (active).
